Patent US10913757B2, “Hydroxycinnamic derivatives, methods and uses thereof” (UNIVERSIDADE DO PORTO, priority 2016, dated 2021)

Experiments:
[1] = Redox properties by differential pulse and cyclic voltammetry; type: physicochemical; settings: for reversibility of the oxidation reaction: cyclic voltammetry, physiological pH; for Ep (redox potential): physiological pH (7.4), voltammetry
Description: In an embodiment, and as an example, AntiOxCINs redox properties were evaluated (Table 1). Redox potentials are correlated with the ability of an antioxidant to donate a hydrogen atom and/or an electron to a free radical.
However, for pyrogallol derivatives (AntiOxCIN4, AntiOxCIN5 and AntiOxCIN7), a significant decrease in redox potentials was observed (Ep=0.034-0.057 V) (Table 1).
The voltammograms presented a diffusion peak and an adsorption post-peak at a more anodic potential correspondent to the oxidation of dissolved and adsorbed forms of the compounds, respectively. The oxidation waves can be related to the oxidation process of the pyrogallol moiety. The cyclic voltammograms also show the presence of two overlapped anodic peaks. The anodic peaks appeared to correspond to irreversible processes as any distinct reduction wave was not seen on the cathodic sweep. The existence of the additional phenolic group in the pyrogallol systems, when compared with the catechol ones, seems to influence the stabilization of the semiquinone intermediate and in turn the oxidative mechanism.
In an embodiment, the electrochemical analytical data was obtained using a computer controlled potentiostat Autolab PGSTAT302N (Metrohm Autolab, Utrecht, Netherlands). Generally, cyclic voltammetry (CV) data was acquired at a scan rate of 50 mVs^−1. Differential pulse voltammetry (DPV) results were acquired at a step potential of 4 mV, pulse amplitude of 50 mV and scan rate of 8 mVs^−1. The electrochemical signals were monitored by the General Purpose Electrochemical System (GPES) version 4.9, software package. All electrochemical experiments were performed at room temperature in an electrochemical cell that was placed in a Faraday cage in order to minimize the contribution of background noise to the analytical signal.
In an embodiment, the process of evaluation of AntiOxCINs redox properties was conducted as follows: stock solutions of each compound (10 mM) were prepared by dissolving the appropriate amount in ethanol. The voltammetric working solutions were prepared in the electrochemical cell, at a final concentration of 0.1 mM. The […] supporting electrolyte was prepared by diluting […] to 100 mL. Voltammetric data was acquired in a three-electrode system consisting of a glassy carbon electrode (GCE, d=2 mm) as working electrode, a counter electrode of platinum wire and a saturated Ag/AgCl reference electrode. In an embodiment, the evaluation of AntiOxCINs lipophilic properties was performed as follows: the electrochemical cell was a four-electrode system with arrays of micro liquid-liquid interfaces (μlTIES) containing two Ag/AgCl reference electrodes and two counter electrodes of Pt, one in each phase. The microporous membrane was sealed with a fluorosilicone sealant (Dow Corning 730) onto a glass cylinder which was filled with 4.0 mL of the aqueous phase, where the aliquots of AntiOxCINs solutions were added. The membrane was then immersed into the organic phase contained in the cell. The organic phase reference solution (a 2 mM BTPPACI+2 mM NaCl aqueous solution) was mechanically stabilized The aqueous supporting electrolyte solution was a Tris-HCl buffer 10 mM pH 7.0.

[2] = tested on: rat liver mitochondria (RLM); experiment: Mitochondrial respiration of isolated RLM (Clark-type oxygen electrode); type: biochemical; settings: for effect on state 3 respiration: all tested concentrations (2.5-10 μM), FIG. 6B-H
Description: In an embodiment, and as an example, AntiOxCINs and MitoQ toxicity effects on the mitochondrial bioenergetics, namely on RLM ΔΨ and mitochondrial respiration parameters, were measured. The […] represents the main component of the electrochemical gradient generated by mitochondrial respiration and accounts for more than 90% of the total available energy. For mitochondrial respiration assays, glutamate/malate (for complex I) and succinate (for complex II) were used as substrates. In addition, the mitochondrial oxidative phosphorylation coupling index, known as respiratory control ratio (RCR, state 3/state 4 respiration) and ADP/O index (the coupling between ATP synthesis and oxygen consumption) were also calculated. AntiOxCINs and MitoQ were tested at antioxidant-relevant concentrations, with 10 μM being the highest concentration.
In an embodiment, the evaluation of AntiOxCINs functional mitochondrial toxicity profile was performed in rat liver mitochondria (RLM). […] The protein concentration was determined by the biuret assay using BSA as a standard.
In an embodiment, the evaluation of AntiOxCINs effect on mitochondrial respiration was performed as follows: the respiration of isolated RLM was evaluated polarographically with a Clark-type oxygen electrode, connected to a suitable recorder in a 1 mL thermostated water-jacketed chamber with magnetic stirring, at 37° C.^1. […] Increasing concentrations of AntiOxCINs (2.5-10 μM) were added to the reaction medium containing respiratory substrates glutamate/malate (10 mM and 5 mM respectively) or succinate (5 mM) and RLM (1 mg) and allowed to incubate for a 5 min period prior to the assay. State 2 was considered as the respiration during the 5 min incubation time with AntiOxCINs. […] State 4 was determined after ADP phosphorylation finished. Subsequent addition of oligomycin (2 μg/ml) inhibited ATP-synthase and originated the oligomycin-inhibition respiration state. Finally, 1 μM FCCP was added to induce uncoupled respiration.

[3] = ABTS radical cation scavenging activity (TAC assay); type: biochemical; settings: ethanol
Text: In an embodiment, the AntiOxCINs antioxidant ranking activity hierarchy was established by in vitro non-cell methods. The selected total antioxidant capacity (TAC) assays (DPPH, ABTS and GO) involved the spectrophotometric measurement of the radical absorbance decrease as a result of an in situ radical deactivation by an antioxidant. Compounds with higher antioxidant activity display lower IC50 values. […] This decrease was attenuated/ameliorated by the increment of the spacer length and/or the introduction of additional hydroxyl group in the aromatic ring.
The radical scavenging activity of AntiOxCINs was evaluated by means of total antioxidant capacity assays based on DPPH., ABTS.^+ and GO. radicals. All these methods involved the spectrophotometric measurement of the absorbance decrease resulting from radical (DPPH., ABTS.^+ or GO.) deactivation with an antioxidant. The results were expressed in IC50, which is defined as the minimum antioxidant concentration necessary to reduce the amount of radical by 50%. Antioxidant assays were performed in a multiplate reader (Powerwave XS Microplate Reader) of Bio-Tech instruments.
In an embodiment, the ABTS.^+ scavenging activity was evaluated as follows: ethanolic solutions of the test compounds with increasing concentrations (range between 10 μM and 500 μM) were prepared. ABTS.^+ radical cation solution was obtained by addition of 150 mM aqueous potassium persulfate solution (163 μL) to 10 mL of 7 mM aqueous ABTS solution followed by storage in the dark at room temperature for 16 h (2.45 mM final concentration). The solution was then diluted in ethanol to reach the absorbance of 0.72±0.02. After addition of the compound (20 μL), in triplicate, to ABTS.^+ solution (180 μL) the spectrophotometric measurement was carried out each minute over 15 minutes. […] Dose-response curves were established for the determination of IC50 values. Data are means±SEM of three independent experiments.

SMILES	reversibility of the oxidation reaction [1]	IC50 [3] [µM]	effect on state 3 respiration [2]	ADP/O ([2]; glutamate/malate, 2.5 μM)	RCR (respiratory control ratio, state 3/state 4) ([2]; glutamate/malate, 2.5 μM)	ADP/O ([2]; glutamate/malate, 5 μM)	RCR (respiratory control ratio, state 3/state 4) ([2]; glutamate/malate, 5 μM)	ADP/O ([2]; glutamate/malate, 10 μM)	RCR (respiratory control ratio, state 3/state 4) ([2]; glutamate/malate, 10 μM)	ADP/O ([2]; succinate, 2.5 μM)	RCR (respiratory control ratio, state 3/state 4) ([2]; succinate, 2.5 μM)	ADP/O ([2]; succinate, 5 μM)	RCR (respiratory control ratio, state 3/state 4) ([2]; succinate, 5 μM)	ADP/O ([2]; succinate, 10 μM)	RCR (respiratory control ratio, state 3/state 4) ([2]; succinate, 10 μM)	also measured
O=C(O)/C=C/c1ccc(O)c(O)c1 [Caffeic acid, caffeic acid, reference compound]	reversible reaction	17.9														Ep (redox potential) [1]: 0.168 V; toxicity toward the mitochondrial bioenergetic apparatus ([2]; RLM): low toxicity
CS(=O)(=O)[O-].O=C(/C=C/c1ccc(O)c(O)c1)NCCCCCC[P+](c1ccccc1)(c1ccccc1)c1ccccc1 [AntiOxCIN2, (E)-(6-(3-(3,4-dihydroxyphenyl)prop-2-enamido)hexyl)triphenylphosphonium methanesulfonate]	reversible reaction	30.5	decrease	2.4 ± 0.04	5.2 ± 1.0	2.2 ± 0.1	3.9 ± 0.6	2.2 ± 0.1	3.4 ± 0.3	1.4 ± 0.1	3.3 ± 0.2	1.3 ± 0.1	3.3 ± 0.2	1.1 ± 0.1	2.1 ± 0.2	Ep (redox potential) ([1]; listed as AntiOxClN2, methanesulfonate): 0.164 V
CS(=O)(=O)[O-].O=C(/C=C/c1cc(O)c(O)c(O)c1)NCCCCCC[P+](c1ccccc1)(c1ccccc1)c1ccccc1 [AntiOxCIN4, (E)-(6-(3-(3,4,5-trihydroxyphenyl)prop-2-enamido)hexyl)triphenylphosphonium methanesulfonate]	irreversible oxidation reaction	12.2	decrease	2.4 ± 0.1	5.3 ± 0.8	2.2 ± 0.1	4.3 ± 0.7	2.2 ± 0.1	3.5 ± 0.5	1.4 ± 0.1	3.4 ± 0.3	1.3 ± 0.1	3.0 ± 0.34	1.3 ± 0.02	2.7 ± 0.4	Ep (redox potential) ([1]; listed as AntiOxClN4, methanesulfonate): 0.034 V
CS(=O)(=O)[O-].O=C(/C=C/c1cc(O)c(O)c(O)c1)NCCCCCCCCCC[P+](c1ccccc1)(c1ccccc1)c1ccccc1 [AntiOxCIN7, (E)-(10-(3-(3,4,5-trihydroxyphenyl)acrylamido)decyl)triphenylphosphonium methanesulfonate]	irreversible oxidation reaction	7.5	increase	2.8 ± 0.3	3.6 ± 0.2	2.4 ± 0.1	3.5 ± 0.3	2.6 ± 0.1	3.3 ± 0.3	1.8 ± 0.2	4.1 ± 0.4	1.8 ± 0.2	3.1 ± 0.2	1.7 ± 0.2	3.7 ± 0.3	Ep (redox potential) ([1]; listed as AntiOxClN7, methanesulfonate): 0.057 V
CS(=O)(=O)[O-].O=C(/C=C/c1ccc(O)c(O)c1)NCCCCCCCCCC[P+](c1ccccc1)(c1ccccc1)c1ccccc1 [AntiOxCIN6, (E)-(10-(3-(3,4-dihydroxyphenyl)acrylamido)decyl)triphenylphosphonium methanesulfonate]	reversible reaction	23.5	increase	2.5 ± 0.1	3.1 ± 0.3	2.5 ± 0.2	3.3 ± 0.2	2.3 ± 0.1	2.6 ± 0.1	1.5 ± 0.1	3.7 ± 0.6	1.5 ± 0.1	3.2 ± 0.3	1.6 ± 0.11	2.6 ± 0.3	Ep (redox potential) ([1]; listed as AntiOxClN6, methanesulfonate): 0.174 V
CS(=O)(=O)[O-].O=C(/C=C/c1ccc(O)c(O)c1)NCCCCCCCC[P+](c1ccccc1)(c1ccccc1)c1ccccc1 [AntiOxCIN3, (E)-(8-(3-(3,4-dihydroxyphenyl)acrylamido)octyl)triphenylphosphoniummethanesulfonate]	reversible reaction	27.9	increase	2.4 ± 0.2	3.8 ± 0.5	2.7 ± 0.2	3.5 ± 0.5	2.4 ± 0.1	3.3 ± 0.3	1.6 ± 0.1	4.1 ± 0.5	1.8 ± 0.3	4.7 ± 0.7	1.6 ± 0.1	3.9 ± 0.6	Ep (redox potential) ([1]; listed as AntiOxClN3): 0.170 V
